Laboratory results published in patent US9827216B2, “Nutritional support to prevent and/or mitigate bone marrow toxicity from a cancerous tumor” (Nestec S.A., priority 2008, dated 2017).

Legend:
[1] = tested on: red blood cell, white blood cell and immune cell populations; assay: Haematological evaluation and flow cytometric analysis of tumor-bearing mice after chemotherapy (Example 1); type: in vivo; conditions: after the chemotherapy
[2] = Body weight of tumor-bearing mice on test diets with chemotherapy (Example 2); type: in vivo; conditions: maximal dose (10 mg/kg)
Description: (§1) The animals were distributed into 7 different group diets. There was a control group that received the diet AIN 93 for adult rodents (maintenance). Test diets were administered in doses appropriate to the animal model: (a) Ctrl diet were supplemented with 1% (w/w) L-arginine, (b) 25% of the protein was replaced by glutamine, (c) 1% (w/w) L-citrulline, (d) 1 g/Kg body weight with active hexose correlated compound, (e) 20 mg/day of RNA nucleotides and (f) 25 mg/day of lactoferrin. […] Control animals without chemotherapeutic treatment were run in parallel for all tested diets. Body weight was assessed every two days. Blood samples were obtained at day 2, 4 and 10 after the chemo-treatment and at sacrifice (14 or 28 days). An autopsy was performed and tumor mass was assessed.

[3] = Body weight of tumor-bearing mice after chemotherapy (Example 1); conditions: maximal dose (10 mg/kg), of the initial body weight
Description: Inbred eight-week-old C57BL/6 (H-2b) mice were used in the experiments. Mice were inoculated subcutaneously (s.c.) on the left flank with 1×10^6 tumor cells, and tumor growth was monitored every 2 days by caliper measurement. 6 days after the tumor inoculation the animals were treated either with oxaliplatin or doxorubicin. Tumor growth was monitored every two days after the chemotherapeutic treatment and they were sacrificed after two weeks of tumor implantation. Some experiments were carried out until 28 days post-chemo to better assess tumor growth.
Body weight was assessed every two days until sacrifice.

[4] = tested on: red blood cell, white blood cell and immune cell populations; assay: Haematological evaluation and flow cytometric analysis, test diets with chemotherapy (Example 2); type: in vivo, mice; conditions: for Global lymphocyte population: following chemotherapy, supplemented diets
Description: as §1

[5] = tested on: MCA-OVA 1×10^6 tumor cells; assay: Tumor growth evaluation, test diets with or without chemotherapy (Example 2); type: in vivo, mice
Description: The animals were distributed into 7 different group diets. There was a control group that received the diet AIN 93 for adult rodents (maintenance). […] Control animals without chemotherapeutic treatment were run in parallel for all tested diets. Body weight was assessed every two days. Blood samples were obtained at day 2, 4 and 10 after the chemo-treatment and at sacrifice (14 or 28 days). An autopsy was performed and tumor mass was assessed.
Methylcholanthrene (MCA) induced sarcoma cell line expressing the exogenous antigen ovalbumin (OVA) was grown in DMEM or RPMI 1640 supplemented with 2 mM L-glutamine, 10 mM HEPES, 20 μM 2-mercaptoethanol, 150 U/mL streptomycin, 200 U/mL penicillin, and 10% heat-inactivated FBS. 1×10^6 tumor cells were injected in the flank of the mice 6 days prior to the chemotherapy.
Growth of tumors was monitored every 2 d by using calipers, and tumor volume was calculated by using the formula length×width×width×0.52 mm^3.

[6] = tested on: immune cells; assay: Nutritional intervention on immune cells in tumor burdened animals with and without chemotherapy (FIG. 11); type: in vivo; conditions: during the second phase (tumor-induced toxicity)
From the text: FIG. 11 illustrates a graph of the effect of nutritional intervention on immune cells in tumor burdened animals with and without chemotherapy in accordance with an embodiment of the present disclosure.

[7] = tested on: NK cell; conditions: about 750 mg per day for two weeks, cited from earlier work
[8] = tested on: γδ T cells; conditions: acid hydrolysed, diluted in media; peripheral blood mononuclear cells; (5%-75%); cited from earlier work
[9] = tested on: tongue and/or esophageal tumors; assay: Carcinogen induction of tongue and/or esophageal tumors; type: in vivo, CB6F1-Tg rasH2@Jcl mice; conditions: carcinogen-induced
From the text: Male CB6F1-Tg rasH2@Jcl mice (Tg) at 8 weeks of age are obtained and maintained in plastic cages. They are all allowed free access to a powdered basal diet of CRF (Charles River Formula)-1. A carcinogen, 4-nitroquinoline 1-oxide is used to induce tongue and/or esophageal tumors in this study.

Molecule: O=C1[O][Pt]2([NH][C@@H]3CCCC[C@H]3[NH]2)[O]C1=O [oxaliplatin]
- white blood cell counts [1]: leukocyte counts that were higher that the baseline counts
- Maximal weight loss [2]: around 15%
- Maximal weight loss [3]: around 15%

Molecule: NC(=O)CC[C@H](N)C(=O)O [glutamine]
- Global lymphocyte population [4]: less depressed

Molecule: N=C(N)NCCC[C@H](N)C(=O)O [arginine, L-arginine]
- loss of CD3+ cells ([4]; around 10 days post-chemotherapy, supplemented diet): partially modulated
- fall of erythrocytes after chemotherapy ([4]; diet supplemented 1% (w/w), between days 6 and 10 post-chemo, vs control diet and other treatments (FIG. 3)): prevented the marked fall of erythrocytes
- tumor size ([5]; combination with the chemotherapy treatment vs chemotherapy alone (FIG. 4)): further reduced the tumor size
- progression of the implanted tumor ([5]; supplemented diet compared to other groups): delayed progression
- immune cell population / concentration [6]: increase immune cell concentration

Molecule: NC(=O)NCCC[C@H](N)C(=O)O [citrulline, L-citrulline]
- Global lymphocyte population [4]: less depressed

Molecule: vitamin E
- NKG2D expression ([7]; all patients studied): small but consistent induction
- NK cell cytolytic activity ([7]; cancer patients): significantly improved

Molecule: CCNC(=O)CC[C@H](N)C(=O)O [L-theanine]
- expansion of γδ T cells [8]: 15 fold

Molecule: O=[N+]([O-])c1cc[n+]([O-])c2ccccc12 [4-nitroquinoline 1-oxide]
- mice developing tumors in the esophagus [9]: 60%
- mice developing tumors on the tongue [9]: 100%
